We go through 86 compounds from PubChem BioAssay AID2305 (GlaxoSmithKline (GSK), 2010).

The test relates to P. falciparum 3D7 growth, pLDH absorbance. The experiment in a line: P. falciparum 3D7 growth inhibition, dose response, strain 3D7 (AID 2305).

Each structure is given as a SMILES string.

`CCCCCn1c(Sc2ccc(C#N)c([N+](=O)[O-])c2)nnc1-c1cccc(Cl)c1`: the IC50 was determined as 770 nM.
As for `CCC(=O)N(c1ccccc1)C1CCN(CCCC(NC(=O)c2cc(C(F)(F)F)cc(C(F)(F)F)c2)c2ccc(Cl)c(Cl)c2)CC1` (stereo unspecified), the figure is 800 nM.
As for `CCCNC(=O)C1CCN(C(c2ccccc2)c2ccc(Cl)c(Cl)c2)CC1` (stereo unspecified), the figure is 710 nM.
As for `CCCCN1C(=O)[C@H]2CC(=O)CC(C3CCCCC3)[C@H]2C1=O` (stereo partly specified), the figure is 890 nM; as for `COc1cccc(CNC(=O)[C@H]2CNCCN2C(=O)CCCc2ccccc2)c1`, 790 nM; as for `COc1ccc(S(=O)(=O)NC2CCN(c3cc(C)nc(Nc4cccc(C#N)c4)n3)CC2)cc1`, 950 nM.
`c1ccn2c(-c3ncnc(NCc4ccc5c(c4)CCO5)n3)cnc2c1` gave a half-maximal inhibitory concentration (IC50) of 1190 nM.
As for `CC1CCC(NCc2c(O)ccc3ccccc23)CC1` (stereo unspecified), the figure is 770 nM.
As to `CN(C)Cc1c(O)ccc2[nH]c(-c3ccc(F)cc3F)nc12`, the IC50 was found to be 1300 nM.
With `CC[C@H]1CN2CC[C@H]1C[C@@H]2[C@@H](O)c1ccnc2ccc(OC)cc12` the figure was 120 nM; with `COc1ccc(CNC(=O)c2cnc3c(O)cccc3c2Nc2cccc(NC(=O)c3ccc(-c4ccccc4)cc3)c2)cc1`, 940 nM.
As for `Clc1ccc2c(NN=Cc3ccco3)ccnc2c1`, the figure is 1100 nM.
As for `Cc1cc(Nc2cccc(C(F)(F)F)c2)nc(Nc2cccc(C(F)(F)F)c2)n1`, the figure is 640 nM; as for `CC[C@H]1CN2CC[C@@H]1C[C@H]2[C@H](O)c1cc(N2CCC(C)CC2)nc2ccc(OC)cc12`, 170 nM.
As for `CN1CCC(N2CCN(Cc3cccc(-c4ccc(-c5nc6ccc(F)cc6[nH]5)cc4)c3)CC2)CC1`, the IC50 was found to be 110 nM.
With `COc1cccc(-c2ccc(C(=O)NCC3CCCN(Cc4cccc(C(F)(F)F)c4)C3)s2)c1` (stereo unspecified) the figure was 1140 nM; with `Cc1ccc(C)c(Sc2ccc(NC(=O)CN3CCN(C(=O)c4ccco4)CC3)cc2)c1`, 720 nM; with `COc1ccccc1CCNc1nc(C)cc(N[C@@H](CC(C)C)C(=O)NCc2cccs2)n1`, 790 nM.
Regarding `COC(=O)CCCCOc1cc(Cc2cnc(N)nc2N)cc(OC)c1OC`, the IC50 came out at 170 nM.
Consider `COc1cc(NC(=O)N2CCOC(CCN3CCC(c4ccccc4)CC3)(c3ccc(Cl)c(Cl)c3)C2)cc(OC)c1OC` (stereo unspecified), for which the IC50 amounted to 70 nM.
With `COC(=O)C(C)(C)Cc1c(SC(C)(C)C)c2cc(C(C)C)ccc2n1Cc1ccc(Cl)cc1` the figure was 850 nM.
With `c1cc2nc(CCCc3nc4ccc(C5=N[C@H]6CCCC[C@H]6N5)cc4[nH]3)[nH]c2cc1C1=N[C@@H]2CCCC[C@@H]2N1` the figure was 1240 nM.
With `NC1CCN(Cc2ccc(-c3cccc(-c4nc5ccc(F)cc5[nH]4)c3)cc2)C1` (stereo unspecified) the figure was 760 nM.
Take `N#Cc1ccc(CN2CCC(Oc3ccc(NC(=O)c4ccsc4)cc3Cl)C2)cc1` (stereo unspecified): the IC50 was 670 nM.
As for `CC(CNC(=O)c1cc2c(Cl)cc(Cl)cc2[nH]1)CNc1cc(=O)c2ccccc2[nH]1` (stereo unspecified), the figure is 720 nM; as for `O=C(C=Cc1ccc(Cl)c(Cl)c1)NCCCCCN1CCC(CCCNS(=O)(=O)c2ccc(F)cc2)CC1`, 1020 nM.
With `Cc1cccc2[nH]c(-c3cccc(-c4cccc(NC(=O)c5csnn5)c4)c3)nc12` the figure was 300 nM; with `COc1cc2ccccc2cc1CNCCCCCCNCc1cc2ccccc2cc1OC`, 720 nM.
As to `CN1CCN(C(C(=O)NCc2cc(Cl)cc(Cl)c2)c2ccc(Nc3cccc(C(F)(F)F)c3)cc2)CC1` (stereo unspecified), the IC50 worked out at 1120 nM.
As for `COc1cc2c(cc1C(F)(F)F)N(C(=O)Nc1cccc(-c3ccc(CN(C)C)cc3)c1)CC2`, the figure is 710 nM; as for `CN(C(=O)C1(c2ccc(Cl)cc2)CC1)C1CCN(CCCCCNC(=O)/C=C/c2ccc(Cl)c(Cl)c2)CC1`, 770 nM.
Turning to `CCn1c(Sc2ccc(C#N)c([N+](=O)[O-])c2)nnc1-c1cc(OC)cc(OC)c1`, the 50% inhibitory concentration (IC50) came to 570 nM.
With `COc1cc(NCC(O)CNc2cc(OC)c3ccccc3n2)nc2ccccc12` the figure was 110 nM; with `S=C(NCCN1CCOCC1)Nc1ccccc1`, 1020 nM.
As for `Oc1cccc(CNCCCN(Cc2ccccc2)c2ccccc2)c1`, the figure is 600 nM.
With `CN1CCC(C(=O)Nc2cccc(-c3ccc(-c4nc5ccc(F)cc5[nH]4)cc3)c2)CC1` the figure was 710 nM.
Consider `COCCCNC(=S)NN=C(C)c1ccccn1`, for which the IC50 turned out to be 300 nM.
With `Cc1cc(CN2CC[C@H](NC(=O)c3ccc(Cl)c(Cl)c3)C2)ccc1OCCN1CCNCC1` the figure was 940 nM; with `Cc1cc2nc(-c3ccc(/C=C/C(=O)NCCCc4ccccc4)cc3)[nH]c2cc1C`, 960 nM.
With `FC(F)(F)c1ccc2nccc(NN=Cc3ccc(Cl)cc3)c2c1` the figure was 790 nM.
`Nc1nccc2ccc(-c3cccc4ncccc34)cc12` displayed a concentration for half-maximal inhibition (IC50) of 50 nM. This IC50 lies about 16-fold lower than the previous one.
With `FC(F)(F)COc1c(CNCCCCCCNCc2ccc3ccccc3c2OCC(F)(F)F)ccc2ccccc12` the figure was 760 nM; with `Cc1cc(NC(=O)NCCN2CCC(NC(=O)c3ccc(C(F)(F)F)cc3)CC2)c2ccccc2n1`, 410 nM; with `O=C(Nc1ccc(Cl)cc1)c1ccc(CN2CCCN(CC3CCCCC3)CC2)cc1`, 220 nM.
With `Cc1[nH]c(C)c(-c2ccc(Oc3cccc(OC(F)(F)F)c3)cc2)c(=O)c1Br` the figure was 20 nM.
With `CCN1CCC(N(Cc2ccc(-c3ccc(Cl)cc3)cc2)C(=O)Cn2c(CCc3cccc(F)c3F)cc(=O)c3ccccc32)CC1` the figure was 700 nM; with `O=C(Nc1cccc(C(F)(F)F)c1)c1ccc(S(=O)(=O)NCC2CCN(CC3CCCCC3)CC2)cc1`, 320 nM; with `COc1ccc2nccc([C@@H](O)CN3CCC(NS(=O)(=O)c4cc5c(cc4Cl)SCC(=O)N5)CC3)c2c1`, 980 nM.
Turning to `Cc1ccc(-c2nnc(Nc3ccc(CC(N)=O)cc3)c3ccccc23)cc1S(=O)(=O)NCC1CCCO1` (stereo unspecified), the 50% inhibitory concentration (IC50) was 790 nM. This IC50 and that of the compound before are within 1.5-fold of each other.
With `Cc1cc(C2CCCCN2C)ccc1-c1ccc(C(=O)N2CCc3cc4c(cc32)C2(CCN(C)CC2)CO4)cc1` (stereo unspecified) the figure was 790 nM; with `N=C(N)c1ccc(C(=O)Nc2cccc(C(=N)N)c2)cc1`, 1040 nM; with `Cc1nc2ccc3nc(NC(=O)c4ccno4)sc3c2s1`, 660 nM.
As for `CC(C)Oc1cc2c(cc1NS(=O)(=O)c1ccc(-c3ccc(Cl)s3)cc1F)CCN(C)CC2`, the figure is 710 nM.
The compound `COCCN(C(=O)Cc1cccs1)C(C(=O)NCc1ccc(OC)cc1)c1ccc(C(C)C)cc1` (stereo unspecified) came in with an IC50 of 840 nM.
With `CC(C)c1ccc(NC(=O)c2cccc(CN3CCCN(CC4CCCCC4)CC3)c2)cc1` the figure was 710 nM.
With `COc1cc(CCCON2C(N)=NC(N)=NC2(C)C)cc(OC)c1OC` the figure was 40 nM; with `CCOC(=O)C(C)(C)Oc1ccc(C(=C2CC(C)(C)CC(C)(C)C2)c2ccc(O)cc2)cc1`, 1130 nM; with `COC(=O)c1ccc(CC(C)NCC(O)c2ccccc2Cl)cc1` (stereo unspecified), 1010 nM.
With `C[C@H](NC(=O)c1c(CN2CCC(N3CCCCC3=O)CC2)c(-c2cccs2)nc2ccccc12)C1CCCCC1` the figure was 900 nM; with `O=C(NC1c2ccccc2Oc2ccccc21)c1ccccc1O`, 840 nM.
`CC(=O)Nc1ccc(C(=O)Nc2ccc(-c3cccc(-c4nc5ccc(C(F)(F)F)cc5[nH]4)c3)cc2)cn1`: the half-maximal inhibitory concentration (IC50) worked out at 110 nM. Against the preceding compound, the IC50 is about 7.6-fold lower.
With `COc1cc(Nc2nccc(N3CCC(NS(=O)(=O)c4ccc(NC(C)=O)cc4)CC3)n2)cc(OC)c1OC` the figure was 970 nM; with `O=C(Nc1cc(F)cc(F)c1)N[C@H]1CCN(CCCCCNC(=O)[C@@H]2C[C@H]2c2ccc(Cl)c(Cl)c2)C1`, 1080 nM; with `CCN(CCCN1CCCCC1)c1cc(C)nc(Nc2ccc(Oc3ccccc3)cc2)n1`, 300 nM.
With `OCCCCCCNc1nc(NCc2ccccc2-c2ccc(C(F)(F)F)cc2)nc(N2CCNCC2)n1` the figure was 1440 nM.
With `CCCCCC(C)C(C)c1cc(O)c2c(c1)OC(C)(C)c1cnccc1-2` (stereo unspecified) the figure was 770 nM; with `CC1CCC(C[C@@H](C(=O)N[C@H](C(=O)Nc2nccs2)[C@@H](C)O)[C@H](CCC(F)(F)F)N(O)C=O)CC1` (stereo partly specified), 540 nM.
Take `Cc1cc(-c2ccc(CNCCc3cccs3)cc2)ccc1S(=O)(=O)NCc1ccccc1`: the IC50 came out at 1140 nM.
As for `O=S(=O)(Nc1cccc(CCN2CCCCC2CCN2CCCC2)c1)c1ccc2ccccc2c1` (stereo unspecified), the figure is 1070 nM.
In turn, `COCCn1c(Sc2ncnc3sccc23)nc2ccccc21` registered a 50% inhibitory concentration (IC50) of 880 nM.
Compound `O=S(=O)(/C=C/c1ccccc1)N(Cc1ccc(-c2ccc(CNCCOc3ccccc3)cc2)cc1)CC1CCCCN1` (stereo unspecified) came in with an IC50 of 740 nM.
As for `O=C(/C=C/c1ccc(Cl)cc1)NCCCCCN1CCN(C(=O)Nc2ccc(Cl)c(C(F)(F)F)c2)CC1`, the figure is 920 nM; as for `Cc1cccc(N2CCN(Cc3cc(Cl)ccc3O)CC2)c1C`, 770 nM; as for `Cc1c(CCNC(=O)CCCN2CC(C)CC(C)C2)c2ccccc2n1C` (stereo unspecified), 1270 nM.
With `COc1ccc(-c2ccc(NC(=O)c3cccc(C#N)c3)cc2)cc1CN(C)C` the figure was 730 nM.
Regarding `Fc1ccc(-c2cc(NCCCn3ccnc3)nc(-c3cccnc3)n2)cc1`, the half-maximal inhibitory concentration (IC50) is 970 nM.
As for `Cc1[nH]c2ccccc2c1C(=O)C(C)Sc1n[nH]c(-c2ccccc2Br)n1` (stereo unspecified), the figure is 30 nM; as for `CCC1(C)CC(CCNCc2ccccc2O)(c2ccc(F)cc2)CCO1` (stereo unspecified), 880 nM.
As for `O=C(Nc1nc2cc(S(=O)(=O)NCc3ccc(Cl)c(Cl)c3)ccc2n1CCCn1ccnc1)c1ccc(Cl)cc1`, the figure is 730 nM.
As for `CC(C)N1CCC(N(Cc2ccc(-c3ccc(C(F)(F)F)cc3)cc2)C(=O)Cn2c(CCc3cccc(F)c3F)cc(=O)c3ccccc32)CC1`, the figure is 850 nM.
Take `Cc1ccc(NC(=O)c2ccc(N3CCN(c4ccncc4)CC3)cc2)cc1F`: the 50% inhibitory concentration (IC50) stood at 740 nM.
With `COC(C(=O)OCCC1CCCN1C)(c1ccccc1)c1ccccc1` (stereo unspecified) the figure was 970 nM; with `O=C(NC(=Cc1cccc([N+](=O)[O-])c1)c1nc2ccccc2[nH]1)c1cccc(Br)c1`, 620 nM; with `CN(C)CCN(Cc1ccccc1-c1ccc(CNCCc2ccccc2)cc1)C(=O)NC1CCCCC1`, 910 nM.
For `Cc1cc(NN=Cc2ccc(F)cc2)c2cc(C(F)(F)F)ccc2n1`, the IC50 amounted to 230 nM.
As for `O=C(Nc1cccc(-c2cccc(-c3nc4ccc(F)cc4[nH]3)c2)c1)c1ccoc1`, the figure is 330 nM.
